Experimental data from patent US9340500B2, “Aromatic heterocyclic derivative having TRPV4-inhibiting activity” (SHIONOGI & CO., LTD., priority 2011, dated 2016).

Target: human TRPV4 (Homo sapiens (Human), UniProt Q9HBA0)
Test: Test Example 3: measurement of TRPV4 inhibitory activity (Fluo-3, FDSS 3000, 4α-PDD)
Assay type: cell-based
Details: hTRPV4/CHO cells, calculated from IC50 and 4α-PDD EC50
Method: For each compound, TRPV4 inhibitory activity was measured using cells.
(1) The TRPV4 inhibitory activity was measured using CHO-K1 cells stably expressing human TRPV4 (hTRPV4/CHO cells).
(2) Frozen cells were thawed and subcultured with the medium (MEM-α, 10% FBS, […], 50 unit/mL penicillin, 50 μg/mL streptomycin, 1 mg/mL G418).
(3) The 96-well plates which hTRPV4/CHO cells were seeded at densities of 2×10^4 cells/well in the culture medium and cultured in a CO2 incubator in the presence of 5% CO2 at 37° C. for 24 h was used as assay plates.
(4) The assay plate was washed with assay buffer (Hanks, […], […], pH7.4).
(5) Fluo-3, fluorescent dye for Ca influx assay was added to each well, then the assay plate was incubated in a CO2 incubator in the presence of 5% CO2 at 37° C. for one hour (final conc.; 5 μmmol/L Fluo-3).
(6) The assay plate was washed with the assay buffer, and the buffer was remained at 30 μL/well. Then the assay plate was incubated for 10 min at 37° C.
(7) Diluted compound solution was dispensed to each well in the compound plate, and mixed with built-in Pipette and Mixer of the fluorescence analysis system FDSS 3000 (Hamamatsu Photonics).
(8) 50 μL of 4α-PDD solution (concluding 0.1% Pluronic F-127) was applied to each well of assay plate and mixed.
(9) The fluorescent intensity was measured by FDSS 3000 for 8 min from the point of time addition the compound solution, at Ex 480 nm, Em 540 nm wavelength.
TRPV4 inhibitory activity (Ki value) of a compound was evaluated according to the following procedure.
(10) In the presence of the compound, the difference between maximal and minimal of fluorescent intensity value for 8 min from just before addition of 4α-PDD solution was calculated, and it was referred as Max-Min value. Max-Min value of the Ruthenium Red at 10 μM was defined as 100% inhibitory activity, Max-Min value in the absence of the compound was defined as 0% inhibitory activity. The TRPV4 inhibitory activity of the compound was calculated by the following formula. (1−(Max-Min value of the compound−100% inhibitory activity)/(0% inhibitory activity−100% inhibitory activity))×100 (11) By the following formula, inhibitory activity was calculated at 10 points with three fold serial dilution, in the final concentration of the compound from 10 μmmol/L to 0.5 nmol/L. The IC50 value was calculated by dose-response curve. 100−[(fluorescent intensity in the presence of the compound−fluorescent intensity of back ground)/(total fluorescent intensity−fluorescent intensity of back ground)]×100 (12) In the presence of the compound, activity of 4α-PDD was measured at 9 points with three fold serial dilution from 20 μmol/L. Activity of 4α-PDD was calculated by the following formula. (Max-Min value of the each 4α-PDD concentration−0% activity)/(100% activity−0% activity))×100 (13) Effective activity was calculated in 4α-PDD the above. The EC50 value was calculated by dose-response curve. (14) The Ki value of a compound was calculated by the following formula. Ki (nmol/L)=IC50 value (nmol/L)/([A]/EC50 value (nmol/L)) [A]; Concentration of agonist (nmol/L)

Sequence of human TRPV4 (Q9HBA0 whole entry): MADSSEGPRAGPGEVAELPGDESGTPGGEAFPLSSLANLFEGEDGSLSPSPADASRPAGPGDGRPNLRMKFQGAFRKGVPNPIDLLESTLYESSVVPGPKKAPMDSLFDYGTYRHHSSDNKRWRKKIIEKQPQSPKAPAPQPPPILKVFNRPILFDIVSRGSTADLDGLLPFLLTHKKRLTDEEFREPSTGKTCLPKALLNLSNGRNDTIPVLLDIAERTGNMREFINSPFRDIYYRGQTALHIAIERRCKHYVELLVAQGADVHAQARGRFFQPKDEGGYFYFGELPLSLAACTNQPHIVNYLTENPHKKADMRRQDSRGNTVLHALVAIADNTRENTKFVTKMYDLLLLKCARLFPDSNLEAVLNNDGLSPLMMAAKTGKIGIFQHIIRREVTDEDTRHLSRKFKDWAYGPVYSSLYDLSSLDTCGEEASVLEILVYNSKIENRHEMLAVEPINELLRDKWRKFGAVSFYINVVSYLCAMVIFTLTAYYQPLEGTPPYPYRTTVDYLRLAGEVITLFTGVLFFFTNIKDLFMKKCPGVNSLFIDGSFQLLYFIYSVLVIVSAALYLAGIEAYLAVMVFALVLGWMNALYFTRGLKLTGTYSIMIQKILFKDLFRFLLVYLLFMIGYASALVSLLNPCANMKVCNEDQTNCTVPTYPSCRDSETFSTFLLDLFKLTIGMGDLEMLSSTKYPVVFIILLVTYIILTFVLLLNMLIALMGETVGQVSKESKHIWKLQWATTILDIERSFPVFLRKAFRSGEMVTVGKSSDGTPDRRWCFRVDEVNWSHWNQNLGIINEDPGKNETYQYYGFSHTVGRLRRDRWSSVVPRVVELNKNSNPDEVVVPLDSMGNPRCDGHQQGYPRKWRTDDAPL

| Structure (SMILES) | Ki |
| --- | --- |
| Cc1c(C(=O)Nc2cccc(C(F)(F)F)c2)cc(-c2ccccc2)n1CCCN(C)C(=O)OC(C)(C)C [Compound I-030] | 0.701 µM |
| Cc1c(C(=O)Nc2cccc(C(F)(F)F)c2)cc(-c2ccccc2)n1CCCN(C)CCOCc1ccccc1 [Compound I-034] | 2.62 µM |
| Cc1c(C(=O)Nc2cccc(C(F)(F)F)c2)cc(-c2ccccc2)n1CCCN(C)c1ccccc1 [Compound I-012] | 1.14 µM |
| Cc1c(C(=O)Nc2cccc(C(F)(F)F)c2)cc(-c2ccccc2)n1CCCN(C)C(=O)c1cccs1 [Compound I-044] | 0.844 µM |
| COCC(=O)N(C)CCCn1c(-c2ccccc2)cc(C(=O)Nc2cccc(C(F)(F)F)c2)c1C [Compound I-045] | 1.72 µM |
| COCCOCC(=O)N(C)CCCn1c(-c2ccccc2)cc(C(=O)Nc2cccc(C(F)(F)F)c2)c1C [Compound I-050] | 1.14 µM |
| Cc1c(C(=O)Nc2cccc(C(F)(F)F)c2)cc(-c2ccccc2)n1CCCN(C)CC1CCOCC1 [Compound I-040] | 1.14 µM |
| Cc1c(C(=O)Nc2nc3ccccc3s2)cc(-c2ccccc2)n1CCCN1CCOCC1 [Compound I-020] | 0.992 µM |
| Cc1c(C(=O)Nc2cccc(C(F)(F)F)c2)cc(-c2ccccc2)n1CCCN(C)CC1CCOC1 (centres unmarked) [Compound I-036] | 1 µM |
| Cc1c(C(=O)Nc2cccc(C(C)C)c2)cc(-c2ccccc2)n1CCCN1CCOCC1 [Compound I-029] | 0.519 µM |
| CCOC(=O)C1CC1CN(C)CCCn1c(-c2ccccc2)cc(C(=O)Nc2cccc(C(F)(F)F)c2)c1C (centres unmarked) [Compound I-037] | 1.8 µM |
| Cc1c(C(=O)Nc2cccc(Cl)c2)cc(-c2ccccc2)n1CCCN1CCOCC1 [Compound I-013] | 0.453 µM |
| Cc1c(C(=O)Nc2cccc(C(F)(F)F)c2)cc(-c2ccccc2)n1CCCN(C)C(=O)C1CC1 [Compound I-052] | 0.707 µM |
| Cc1c(C(=O)Nc2cccc(C(F)(F)F)c2)cc(-c2ccccc2)n1CCCN(C)C(=O)c1ccncc1 [Compound I-047] | 0.32 µM |
| Cc1c(C(=O)Nc2cccc(C(F)(F)F)c2)cc(-c2ccccc2)n1CCCN(C)C(=O)c1ccc2c(c1)OCO2 [Compound I-048] | 1.31 µM |
| Cc1c(C(=O)Nc2cccc(C(F)(F)F)c2)cc(-c2ccccc2)n1CCCN(C)C(=O)C1CCCCC1 [Compound I-042] | 1.12 µM |
| Cc1c(C(=O)OCc2ccccc2)cc(C(C)(C)C)n1CCCN1CCOCC1 [Compound I-001] | 3.96 µM |
| Cc1c(C(=O)Nc2cccc(C(F)(F)F)c2)cc(-c2ccccc2)n1CCCN(C)C(=O)C(C)C [Compound I-051] | 0.59 µM |
| COC(=O)CCCN(C)CCCn1c(-c2ccccc2)cc(C(=O)Nc2cccc(C(F)(F)F)c2)c1C [Compound I-041] | 0.988 µM |
| Cc1c(C(=O)Nc2cccc(C(F)(F)F)c2)cc(-c2ccccc2)n1CCCNc1ccccc1 [Compound I-011] | 1.7 µM |
| Cc1c(C(=O)Nc2cccc(C(F)(F)F)c2)cc(-c2ccccc2)n1CCCN(C)C(=O)c1ccco1 [Compound I-043] | 1.38 µM |
| Cc1c(C(=O)Nc2cccc(C(F)(F)F)c2)cc(-c2ccccc2)n1CCCN(C)C(=O)Cc1cccs1 [Compound I-046] | 1.68 µM |

Other lines, results leading:

| Ki | Structure (SMILES) |
| --- | --- |
| 1.35 µM | Cc1c(C(=O)Nc2cccc(C(F)(F)F)c2)cc(-c2ccccc2)n1CCCN(C)C(=O)c1ccc(N(C)C)cc1 [Compound I-060] |
| 1.65 µM | Cc1c(C(=O)Nc2cccc(C(F)(F)F)c2)cc(-c2ccccc2)n1CCCN(C)C(=O)c1ccc2occc2c1 [Compound I-058] |
| 0.713 µM | Cc1c(C(=O)Nc2cccc(C(F)(F)F)c2)cc(-c2ccccc2)n1CCCN(C)C(=O)C(Cl)(Cl)Cl [Compound I-064] |
| 2.37 µM | Cc1c(C(=O)Nc2cccc(C(F)(F)F)c2)cc(-c2ccccc2)n1CCCN(C)C(=O)C(=O)c1c[nH]c2ccccc12 [Compound I-067] |
| 0.816 µM | Cc1c(C(=O)Nc2cccc(C(F)(F)F)c2)cc(-c2ccccc2)n1CCCN(C)C(=O)c1cccc(N(C)C)c1 [Compound I-069] |
| 0.662 µM | Cc1c(C(=O)Nc2cccc(C(F)(F)F)c2)cc(-c2ccccc2)n1CCCN(C)C(=O)c1cnc2ccccc2n1 [Compound I-066] |
| 1.79 µM | CC(=O)N1CCC(C(=O)N(C)CCCn2c(-c3ccccc3)cc(C(=O)Nc3cccc(C(F)(F)F)c3)c2C)CC1 [Compound I-057] |
| 0.472 µM | Cc1c(C(=O)Nc2cccc(C(F)(F)F)c2)cc(-c2ccccc2)n1CCCN(C)C(=O)C1CCC1 [Compound I-059] |
| 0.978 µM | Cc1c(C(=O)Nc2cccc(C(F)(F)F)c2)cc(-c2ccccc2)n1CCCN(C)C(=O)c1cccnc1 [Compound I-053] |
| 0.984 µM | Cc1c(C(=O)Nc2cccc(C(F)(F)F)c2)cc(-c2ccccc2)n1CCCN(C)C(=O)c1ccc2ccccc2n1 [Compound I-055] |
| 0.56 µM | CC(=O)Nc1ccc(C(=O)N(C)CCCn2c(-c3ccccc3)cc(C(=O)Nc3cccc(C(F)(F)F)c3)c2C)cc1 [Compound I-056] |
| 1.39 µM | Cc1c(C(=O)Nc2cccc(C(F)(F)F)c2)cc(-c2ccccc2)n1CCCN(C)C(=O)c1csc(-c2cccs2)n1 [Compound I-062] |
| 0.85 µM | COc1ccc(OC)c(CC(=O)N(C)CCCn2c(-c3ccccc3)cc(C(=O)Nc3cccc(C(F)(F)F)c3)c2C)c1 [Compound I-065] |
| 1.17 µM | Cc1c(C(=O)Nc2cccc(C(F)(F)F)c2)cc(-c2ccccc2)n1CCCN(C)C(=O)c1ccccn1 [Compound I-054] |
| 1.7 µM | Cc1c(C(=O)Nc2cccc(C(F)(F)F)c2)cc(-c2ccccc2)n1CCCN(C)C(=O)c1csc(-c2ccccc2)n1 [Compound I-061] |
| 1.01 µM | Cc1c(C(=O)Nc2cccc(C(F)(F)F)c2)cc(-c2ccccc2)n1CCCN(C)C(=O)C1CCOCC1 [Compound I-068] |
